Test results: ChEMBL document CHEMBL1201862, “PubChem BioAssay data set” (2004)
Active and inactive are the calls of the source.

Columns and labels:
[1] = test system: INS1; test: INS-1E survival protection against cytokine death – cell-based, luminescence, retest, dose response (AID 449756); type: functional; conditions: Rattus norvegicus;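 further: cell death triggered by IL-1 beta plus TNF-alpha plus IFN-gamma mixture; protective hits raise ATP signal compared with cytokine alone wells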
[2] = molecular target: Photoreceptor-specific nuclear receptor (Homo sapiens, UniProt Q9Y5X4); type: functional, cell-based;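 further: CHO-S cells with Gal4-NCOR and VP16-NR2E3 two-hybrid luciferase reporter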
[3] = molecular target: T1, High affinity choline transporter 1 (Homo sapiens, UniProt Q9GZV3); test: human choline transporter blockers, potency – cell-based, 5-point CRC, membrane potential dye, dose response (AID 504840); type: functional
T1 sequence (Q9GZV3 whole entry): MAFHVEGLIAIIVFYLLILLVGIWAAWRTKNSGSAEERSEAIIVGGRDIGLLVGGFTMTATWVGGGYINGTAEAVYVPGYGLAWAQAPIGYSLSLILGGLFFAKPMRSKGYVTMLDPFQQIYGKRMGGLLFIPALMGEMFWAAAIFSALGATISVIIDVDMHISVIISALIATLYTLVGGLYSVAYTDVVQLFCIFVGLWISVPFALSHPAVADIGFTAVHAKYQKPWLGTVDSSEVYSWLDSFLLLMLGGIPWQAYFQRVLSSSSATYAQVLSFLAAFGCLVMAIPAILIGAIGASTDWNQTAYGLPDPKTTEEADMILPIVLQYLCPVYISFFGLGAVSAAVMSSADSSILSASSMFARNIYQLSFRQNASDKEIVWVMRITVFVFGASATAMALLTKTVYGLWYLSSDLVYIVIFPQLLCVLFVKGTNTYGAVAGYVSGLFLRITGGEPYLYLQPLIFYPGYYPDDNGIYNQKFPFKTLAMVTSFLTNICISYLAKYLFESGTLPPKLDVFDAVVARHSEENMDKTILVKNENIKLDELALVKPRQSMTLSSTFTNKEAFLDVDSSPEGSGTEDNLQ

[4] = molecular target: T1, High affinity choline transporter 1; test: human choline transporter blockers, potency – cell-based, 10-point CRC, membrane potential dye, dose response (AID 588401); type: functional;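 further: membrane potential dye fluorescence of choline-evoked depolarization via CHT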
[5] = molecular target: T2, RNA-binding protein pos-1 (Caenorhabditis elegans, UniProt G5EF15); test: disruptors of C. elegans POS-1 RNA interaction – biochemical, fluorescence polarization, dose response (AID 1964);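 further: purified POS-1 fused to maltose binding protein made in E. coli; potency of compounds blocking POS-1 binding to fluorescent RNA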
T2 sequence (G5EF15 whole entry): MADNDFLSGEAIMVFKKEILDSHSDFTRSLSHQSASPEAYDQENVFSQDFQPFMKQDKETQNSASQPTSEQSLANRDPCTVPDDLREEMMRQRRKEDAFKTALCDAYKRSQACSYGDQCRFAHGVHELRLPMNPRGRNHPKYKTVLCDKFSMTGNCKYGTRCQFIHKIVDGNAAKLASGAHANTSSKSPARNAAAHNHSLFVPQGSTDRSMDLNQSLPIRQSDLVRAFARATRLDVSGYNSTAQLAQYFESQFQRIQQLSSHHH

[6] = molecular target: T3, Zinc finger protein mex-5 (Caenorhabditis elegans, UniProt Q9XUB2); test: potency of MEX-5 RNA-binding blockers – biochemical, C. elegans, fluorescence polarization, dose response (AID 1960)
T3 sequence (Q9XUB2 whole entry): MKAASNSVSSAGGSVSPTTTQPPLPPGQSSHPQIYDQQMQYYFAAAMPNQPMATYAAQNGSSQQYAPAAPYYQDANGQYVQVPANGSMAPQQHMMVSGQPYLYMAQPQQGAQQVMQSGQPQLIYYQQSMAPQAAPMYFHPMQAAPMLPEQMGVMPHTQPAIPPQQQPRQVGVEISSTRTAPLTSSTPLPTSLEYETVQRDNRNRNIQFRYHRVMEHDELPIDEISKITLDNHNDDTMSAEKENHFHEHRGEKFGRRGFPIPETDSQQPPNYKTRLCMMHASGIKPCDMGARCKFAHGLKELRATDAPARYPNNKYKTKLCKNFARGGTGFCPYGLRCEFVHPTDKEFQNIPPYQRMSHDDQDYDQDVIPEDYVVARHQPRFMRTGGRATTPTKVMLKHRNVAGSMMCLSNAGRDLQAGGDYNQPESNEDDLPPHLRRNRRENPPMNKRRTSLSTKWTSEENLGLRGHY

[7] = molecular target: T4, Probable nicotinate-nucleotide adenylyltransferase (Staphylococcus aureus (strain N315), UniProt P65502); type: functional, Staphylococcus aureus subsp. aureus N315;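 on IC50 Mean: confirmatory dose-response retesting of NadD inhibitor hits first found in an ultra-high-throughput screen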
[8] = molecular target: T4, Probable nicotinate-nucleotide adenylyltransferase; type: functional, Staphylococcus aureus subsp. aureus N315; conditions: read-out: IC50_Mean
[9] = molecular target: Cytochrome P450 2C9 (Homo sapiens, UniProt P11712)
[10] = viability of uninfected HEp-2 cells – cell-based, HTS, cytotoxicity control for RSV inhibitor project, dose response (AID 2410); type: functional; conditions: human respiratory syncytial virus
[11] = molecular target: Melanocortin receptor 4 (Homo sapiens, UniProt P32245); test: inhibitors of MC4R cAMP signaling – cell-based, TR-FRET, biased antagonists, dose response (AID 602298); type: functional;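 further: antagonist potency against agonist-stimulated cAMP production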
[12] = cAMP pathway inhibition in counterscreen cell line – TR-FRET cAMP detection, counter-screen for MC4R biased antagonist project, dose response (AID 602305); type: functional, cell-based;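 further: U2OS cells stimulated with forskolin near its EC80 as the cAMP inducer; potency is for inhibition of forskolin-stimulated cAMP signaling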
[13] = molecular target: Cytochrome P450 2D6 (Homo sapiens, UniProt P10635);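 further: CYP2D6 member of a cytochrome P450 panel assay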
[14] = cells
[15] = test system: H9c2; test: cells; type: functional, cell-based; conditions: Rattus norvegicus, H9c2, Myocardium;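 further: confirmatory concentration-response retest of ultra-high-throughput screening hits for modulation of myocardial damage; cell death induced by hydrogen peroxide oxidative stress; compound pretreatment for 60 min then peroxide exposure for 2 h; potency is for protecting the cells against peroxide damage rather than for killing them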
[16] = molecular target: T5, Rac GTPase-activating protein 1 (Homo sapiens, UniProt Q9H0H5); test: blockers of MgcRacGAP-driven Rac1 GTP hydrolysis – biochemical, ADP Hunter fluorescence, primary and confirmatory, confirmation (AID 624330); type: functional
T5 sequence (Q9H0H5 whole entry): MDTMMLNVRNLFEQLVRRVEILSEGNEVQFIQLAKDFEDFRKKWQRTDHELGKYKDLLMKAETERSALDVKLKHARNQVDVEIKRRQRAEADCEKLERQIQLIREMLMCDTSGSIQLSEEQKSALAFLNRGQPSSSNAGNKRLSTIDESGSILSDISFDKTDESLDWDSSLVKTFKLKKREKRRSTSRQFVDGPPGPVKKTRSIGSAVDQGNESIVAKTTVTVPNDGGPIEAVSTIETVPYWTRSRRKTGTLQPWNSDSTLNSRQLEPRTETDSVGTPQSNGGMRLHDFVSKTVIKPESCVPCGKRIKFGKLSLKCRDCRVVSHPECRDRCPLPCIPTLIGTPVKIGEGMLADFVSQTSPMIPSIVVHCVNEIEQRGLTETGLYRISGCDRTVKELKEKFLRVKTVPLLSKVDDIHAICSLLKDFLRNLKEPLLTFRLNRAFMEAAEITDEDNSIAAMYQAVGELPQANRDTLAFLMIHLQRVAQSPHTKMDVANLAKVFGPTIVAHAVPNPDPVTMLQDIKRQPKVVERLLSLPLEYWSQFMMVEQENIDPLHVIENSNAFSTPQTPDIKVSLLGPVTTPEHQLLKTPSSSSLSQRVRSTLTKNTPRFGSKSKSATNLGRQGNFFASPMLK

Chain of Melanocortin receptor 4 (P32245 whole entry): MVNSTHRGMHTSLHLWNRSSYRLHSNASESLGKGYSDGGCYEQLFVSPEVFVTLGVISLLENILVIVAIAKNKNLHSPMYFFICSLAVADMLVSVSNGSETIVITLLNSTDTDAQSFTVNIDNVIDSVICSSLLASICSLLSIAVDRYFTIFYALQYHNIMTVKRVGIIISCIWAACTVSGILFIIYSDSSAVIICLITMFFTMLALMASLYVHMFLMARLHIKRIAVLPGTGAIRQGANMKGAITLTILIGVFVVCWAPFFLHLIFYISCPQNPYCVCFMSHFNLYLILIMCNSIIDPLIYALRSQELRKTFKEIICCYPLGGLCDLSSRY
Chain of Photoreceptor-specific nuclear receptor (Q9Y5X4 whole entry, the tested form may be a part): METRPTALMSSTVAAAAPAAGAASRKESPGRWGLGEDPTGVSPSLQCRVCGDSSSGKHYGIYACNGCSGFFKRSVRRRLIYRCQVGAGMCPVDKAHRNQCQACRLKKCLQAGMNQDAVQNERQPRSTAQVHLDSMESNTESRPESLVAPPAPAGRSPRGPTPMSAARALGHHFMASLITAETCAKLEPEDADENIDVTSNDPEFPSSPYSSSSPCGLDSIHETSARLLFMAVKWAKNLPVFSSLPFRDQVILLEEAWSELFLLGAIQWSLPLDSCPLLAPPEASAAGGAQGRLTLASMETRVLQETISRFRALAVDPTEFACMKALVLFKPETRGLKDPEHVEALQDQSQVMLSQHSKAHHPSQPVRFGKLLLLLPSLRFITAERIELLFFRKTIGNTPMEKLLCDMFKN
T4 sequence (P65502 whole entry): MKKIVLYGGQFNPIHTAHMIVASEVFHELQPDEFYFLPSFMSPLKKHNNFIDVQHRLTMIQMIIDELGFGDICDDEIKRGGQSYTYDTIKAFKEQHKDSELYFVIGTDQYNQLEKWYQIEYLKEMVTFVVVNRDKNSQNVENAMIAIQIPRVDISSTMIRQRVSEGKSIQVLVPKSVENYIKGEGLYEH
Chain of Cytochrome P450 2C9 (P11712 whole entry): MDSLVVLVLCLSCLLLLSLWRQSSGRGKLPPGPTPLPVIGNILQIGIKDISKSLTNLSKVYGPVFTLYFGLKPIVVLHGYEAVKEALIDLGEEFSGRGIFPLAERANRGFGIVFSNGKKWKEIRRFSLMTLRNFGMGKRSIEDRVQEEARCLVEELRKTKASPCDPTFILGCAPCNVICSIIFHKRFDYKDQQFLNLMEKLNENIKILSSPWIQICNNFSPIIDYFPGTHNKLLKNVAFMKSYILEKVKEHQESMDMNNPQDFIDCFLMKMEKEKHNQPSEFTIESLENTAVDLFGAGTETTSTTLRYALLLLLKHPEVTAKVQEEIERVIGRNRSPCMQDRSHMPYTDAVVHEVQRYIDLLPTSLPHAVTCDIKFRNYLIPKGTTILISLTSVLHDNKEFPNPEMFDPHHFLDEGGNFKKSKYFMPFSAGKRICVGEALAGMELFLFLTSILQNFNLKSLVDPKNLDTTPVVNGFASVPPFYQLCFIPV
Chain of Cytochrome P450 2D6 (P10635 whole entry): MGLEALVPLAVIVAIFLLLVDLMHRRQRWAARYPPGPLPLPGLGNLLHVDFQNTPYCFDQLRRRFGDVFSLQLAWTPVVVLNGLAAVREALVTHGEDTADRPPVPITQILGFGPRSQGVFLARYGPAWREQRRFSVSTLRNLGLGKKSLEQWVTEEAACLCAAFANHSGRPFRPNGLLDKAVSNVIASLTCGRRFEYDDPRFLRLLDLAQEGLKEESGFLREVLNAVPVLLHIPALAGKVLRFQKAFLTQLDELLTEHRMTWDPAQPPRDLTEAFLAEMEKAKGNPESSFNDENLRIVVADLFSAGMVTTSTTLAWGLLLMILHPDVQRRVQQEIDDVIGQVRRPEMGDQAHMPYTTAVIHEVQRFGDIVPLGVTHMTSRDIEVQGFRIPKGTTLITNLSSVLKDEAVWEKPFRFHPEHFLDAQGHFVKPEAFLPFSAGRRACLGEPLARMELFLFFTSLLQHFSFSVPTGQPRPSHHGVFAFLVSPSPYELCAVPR

## O=[N+]([O-])c1ccc(NC(S)=NCCc2ccc(F)cc2)cc1
[1]
  AC50: 6.89 µM (active)
[2]
  IC50: 5.06 µM (active)

## CCc1ccc(C(C)N=C(S)NC2CCCCC2)cc1 (stereo not given)
[3]
  IC50: 7.86 µM (active)
[4]
  IC50: 11.2 µM (active)

## CCCCC1=CC2=CC(=O)C(C)(OC(=O)c3cccs3)C(=O)C2=CO1 (stereo not given)
[5]
  EC50: 35.4 µM (active)
[6]
  EC50: 30.9 µM (active)
[7]
  IC50: 10.9 µM (active)
[8]
  IC50: 34.4 µM (active)

## Cc1ccc(-c2nc(NC(=O)CSc3nnnn3-c3ccccc3)ns2)cc1
[2]
  IC50: 1.06 µM (active)

## NC(=O)CC(NC(=O)c1ccccc1)c1ccc(N2CCCCCCC2)c([N+](=O)[O-])c1 (stereo not given)
[3]
  IC50: 6.41 µM (active)
[4]
  IC50: 6.21 µM (active)

## CC(=O)NN1C(=O)c2ccc(Oc3cccc([N+](=O)[O-])c3)cc2C1=O
[3]
  IC50: 9.92 µM (active)
[4]
  IC50: 4.5 µM (active)
[9]
  AC50: 31.6 µM (inconclusive)

## COc1ccc(OC)c(C2C3=C(O)CCCC3=NC(C)=C2C(=O)Nc2nc3ccccc3s2)c1 (stereo not given)
[10]
  CC50: 23.1 µM (active)
[11]
  IC50: 12.6 µM (inactive)
[12]
  IC50: > 64.6 µM (inactive)
[13]
  AC50: 22.4 µM (inconclusive)
[14]
  IC50: 9.83 µM (active)

## CCN(C[C@H]1N[C@@](CC)(C(=O)OC)[C@H]2C(=O)N(Cc3ccccc3)C(=O)[C@@H]12)C(=O)c1ccc(C(C)(C)C)cc1
[15]
  IC50: > 79 µM (inactive)
[11]
  IC50: > 64.6 µM (inactive)
[12]
  IC50: > 64.6 µM (inactive)

## CCOC(=O)c1sc(S)nc1C
[11]
  IC50: 18.2 µM (inactive)
[12]
  IC50: 44.7 µM (inactive)
[16]
  IC50: 50 µM (active)
